We go through 7 molecules from BindingDB's records for doi:10.7270/Q2SF2TM0 (The Scripps Research Institute Molecular Screening Center, 2009).

Structures are written as SMILES.

Sequence of Beta-lactamase (Q79MP6 whole entry): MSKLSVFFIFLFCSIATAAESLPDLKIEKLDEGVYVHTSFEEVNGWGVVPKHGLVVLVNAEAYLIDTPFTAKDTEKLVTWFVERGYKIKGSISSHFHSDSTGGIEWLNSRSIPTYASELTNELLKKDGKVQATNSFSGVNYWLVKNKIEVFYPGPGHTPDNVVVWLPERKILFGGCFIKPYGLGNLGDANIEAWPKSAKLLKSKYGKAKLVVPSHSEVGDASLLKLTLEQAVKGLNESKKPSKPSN

The experiment concerns the target Beta-lactamase (Pseudomonas aeruginosa, UniProt Q79MP6). Description: inhibition of IMP-1 beta-lactamase activity – biochemical, epi-absorbance, selectivity assay for VIM-2 inhibitor project, dose response (AID 1920).
For `COc1ccc(OC)c(C2C(C(=O)c3ccco3)C(=O)C(=O)N2Cc2cccnc2)c1` (configuration not stated) [2-(2,5-dimethoxyphenyl)-3-(furan-2-carbonyl)-4-hydroxy-1-(pyridin-3-ylmethyl)-2H-pyrrol-5-one], the IC50 – broadly, the concentration that gives 50% inhibition – is more than 59.6 µM.
The molecule `O=C1C(=O)N(Cc2cccnc2)C(c2ccccn2)C1C(=O)c1cccs1` (configuration not stated) [3-hydroxy-5-(2-pyridinyl)-1-(3-pyridinylmethyl)-4-(2-thienylcarbonyl)-1,5-dihydro-2H-pyrrol-2-one] displayed an IC50 of more than 59.6 µM.
`COc1ccc(C(=O)C2C(=O)C(=O)N(Cc3ccco3)C2c2cc(OC)ccc2OC)cc1` (configuration not stated) [(4E)-5-(2,5-dimethoxyphenyl)-1-(2-furanylmethyl)-4-[hydroxy-(4-methoxyphenyl)methylidene]pyrrolidine-2,3-dione] had a half-maximal inhibitory concentration (IC50) of more than 59.6 µM.
With `O=C1C(=O)N(Cc2cccnc2)C(c2ccccn2)C1C(=O)c1ccc(F)cc1` (configuration not stated) [(4Z)-4-[(4-fluorophenyl)-hydroxy-methylene]-5-(2-pyridyl)-1-(3-pyridylmethyl)pyrrolidine-2,3-quinone], the IC50 was more than 59.6 µM.
Under `O=C1C(=O)N(Cc2cccnc2)C(c2ccccn2)C1C(=O)c1ccccc1` (configuration not stated) [(4Z)-4-[hydroxy(phenyl)methylene]-5-(2-pyridyl)-1-(3-pyridylmethyl)pyrrolidine-2,3-quinone] stands more than 59.6 µM; under `COc1cc(OC)c(OC)cc1C=NNC(=O)Cc1c(C)[nH][nH]c1=O` [MLS000555854], more than 59.6 µM.
Under `COc1ccc(OC)c(C=NNC(=O)Cc2c(C)[nH][nH]c2=O)c1` [SMR000147372] stands more than 59.6 µM.
